Data from patent US10285982B2, “3-(1H-pyrrolo[2,3-B]pyridin-2-yl)-1H-pyrazolo[3,4-C]pyridines and therapeutic uses thereof” (Samumed, LLC, priority 2015, dated 2019).

Experiments:
Assay type in all cases: cell-based
[1] = tested on: primary human fibroblasts derived from IPF patients (LL29 cells) treated with TGF-β1; test: Inhibition of fibrotic process, αSMA staining in TGF-β1 treated LL29 fibroblasts; conditions: Fibroblast; for EC50: 96 h, % αSMA positive LL29 cells, TGF-β1 20 ng/mL, 4 days; for inhibition at 10 µM: given where EC50 >10 μM, αSMA, LL29 cells, TGF-β1, read-out: percent inhibition at 10 μM
Outline: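 Potency reflects suppression of TGF-β1-driven αSMA expression in IPF patient fibroblasts over 4 days. Values are EC50s from normalized αSMA-positive cell counts, with % inhibition at 10 μM when EC50 exceeded 10 μM.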

SW480 colon cancer cells = test: Cell viability assay (CellTiter-Blue); conditions: Homo sapiens, 96 h, four days; for inhibition at 10 µM: given where EC50 >10 μM, read-out: percent inhibition at 10 μM
Outline: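 Four-day viability readout in SW480 cells: compound at 0.0045–10 μM (1:3 series), DMSO controls in eight replicates, CellTiter-Blue fluorescence after ~3 h. Values are regression-derived EC50s, or percent inhibition at 10 μM when EC50 exceeds 10 μM.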

IL-6 (THP-1 cells) = test: IL-6 inhibition in LPS-stimulated THP-1 cells (HTRF); conditions: Homo sapiens; for EC50: IL-6 in THP-1 cells, LPS 500 ng/mL, 22 hours; for inhibition at 10 µM: given where EC50 >10 μM, IL-6, THP-1 cells, LPS, read-out: percent inhibition at 10 μM
Outline: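 Readout is the 665/620 nm HTRF ratio for secreted IL-6, normalized to DMSO wells, with EC50 from a variable-slope four-parameter fit, or % inhibition at 10 μM when above 10 μM. Cells (1% FBS, 24 h beforehand) got compound for 2 h, then LPS 500 ng/mL for 22 h at 37° C; top dose 10 μM, 0.1% DMSO.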

Row | EC50 (SW480 colon cancer cells) | EC50 (IL-6 (THP-1 cells)) | Compound | EC50 [1] | inhibition at 10 µM (IL-6 (THP-1 cells)) | inhibition at 10 µM [1] | inhibition at 10 µM (SW480 colon cancer cells)
1 | > 10 µM | > 10 µM | Fc1cccc(-c2ccnc3[nH]c(-c4n[nH]c5cnc(-c6cncc(OCc7ccccc7)c6)cc45)cc23)c1 [Compound 518, 5-(5-(Benzyloxy)pyridin-3-yl)-3-(4-(3-fluorophenyl)-1H-pyrrolo[2,3-b]pyridin-2-yl)-1H-pyrazolo[3,4-c]pyridine] | > 10 µM | 0% | 27.5% | 41.5%
2 | > 10 µM | > 10 µM | CC(C)Nc1cncc(-c2cc3c(-c4cc5c(-c6cccnc6)ccnc5[nH]4)n[nH]c3cn2)c1 [Compound 96, N-Isopropyl-5-(3-(4-(pyridin-3-yl)-1H-pyrrolo[2,3-b]pyridin-2-yl)-1H-pyrazolo[3,4-c]pyridin-5-yl)pyridin-3-amine] | > 10 µM | 23.5% | 0% | 20.5%
3 | > 10 µM | > 10 µM | CCC(=O)Nc1cncc(-c2cc3c(-c4cc5c(-c6cccc(F)c6)ccnc5[nH]4)n[nH]c3cn2)c1 [Compound 1, N-(5-(3-(4-(3-Fluorophenyl)-1H-pyrrolo[2,3-b]pyridin-2-yl)-1H-pyrazolo [3,4-c]pyridin-5-yl)pyridin-3-yl)propionamide] | 1.62 µM | 23.6% | – | 36.3%
4 | > 10 µM | > 10 µM | CCNCc1cncc(-c2cc3c(-c4cc5c(-c6ccccc6F)ccnc5[nH]4)n[nH]c3cn2)c1 [Compound 62, N-((5-(3-(4-(2-Fluorophenyl)-1H-pyrrolo[2,3-b]pyridin-2-yl)-1H-pyrazolo [3,4-c]pyridin-5-yl)pyridin-3-yl)methyl)ethanamine] | > 10 µM | 24.8% | 64.9% | 15.7%
5 | > 10 µM | > 10 µM | O=C(Cc1ccccc1)Nc1cncc(-c2cc3c(-c4cc5cccnc5[nH]4)n[nH]c3cn2)c1 [Compound 262, N-(5-(3-(1H-Pyrrolo[2,3-b]pyridin-2-yl)-1H-pyrazolo[3,4-c]pyridin-5-yl)pyridin-3-yl)-2-phenylacetamide] | > 10 µM | 26.7% | 45.5% | 26.5%
6 | > 10 µM | > 10 µM | CN1CCN(c2ccnc3[nH]c(-c4n[nH]c5cnc(-c6cncc(NC(=O)CC7CCNCC7)c6)cc45)cc23)CC1 [Compound 641, N-(5-(3-(4-(4-Methylpiperazin-1-yl)-1H-pyrrolo[2,3-b]pyridin-2-yl)-1H-pyrazolo[3,4-c]pyridin-5-yl)pyridin-3-yl)-2-(piperidin-4-yl)acetamide] | 4.97 µM | 29.6% | – | 13.1%

Row | Compound | EC50 (SW480 colon cancer cells) | EC50 (IL-6 (THP-1 cells)) | EC50 [1] | inhibition at 10 µM (IL-6 (THP-1 cells)) | inhibition at 10 µM [1] | inhibition at 10 µM (SW480 colon cancer cells)
7 | CC(C)(C)C(=O)Nc1cncc(-c2cc3c(-c4cc5c(-c6cccc(F)c6)ccnc5[nH]4)n[nH]c3cn2)c1 [Compound 8, N-(5-(3-(4-(3-Fluorophenyl)-1H-pyrrolo[2,3-b]pyridin-2-yl)-1H-pyrazolo [3,4-c]pyridin-5-yl)pyridin-3-yl)pivalamide] | 0.723 µM | > 10 µM | 0.033 µM | 45.4% | – | –
8 | O=C(Cc1ccccc1)Nc1cncc(-c2cc3c(-c4cc5c(-c6ccccc6F)ccnc5[nH]4)n[nH]c3cn2)c1 [Compound 66, N-(5-(3-(4-(2-Fluorophenyl)-1H-pyrrolo[2,3-b]pyridin-2-yl)-1H-pyrazolo [3,4-c]pyridin-5-yl)pyridin-3-yl)-2-phenylacetamide] | 0.62 µM | > 10 µM | 0.501 µM | 35.8% | – | –
9 | FC1(F)CCN(Cc2cncc(-c3cc4c(-c5cc6cccnc6[nH]5)n[nH]c4cn3)c2)C1 [Compound 278, 5-(5-((3,3-Difluoropyrrolidin-1-yl)methyl)pyridin-3-yl)-3-(1H-pyrrolo[2,3-b]pyridin-2-yl)-1H-pyrazolo[3,4-c]pyridine] | 5.01 µM | 0.029 µM | 0.111 µM | – | – | –
